Where a name gives a salt, the structure may show the parent alone. Read-outs that look alike come from different tables or passages of the source.
What was measured:
[1] = target: T1, HIV-1 protease (Human immunodeficiency virus type 1 group M subtype B, UniProt P04585); experiment: biochemical; conditions: read-out: Inhib of HIV-Protease IC50
T1 construct: Recombinant HIV-1 protease (>96% purity); purchased Bachem Bioscience Inc. (King of Prussia, PA)
Text: The testing of specific 5,6-dihydropyrones as inhibitors of the HIV aspartyl protease, based on the study of the hydrolysis of an undecapeptide enzyme substrate, and the testing of the 5,6-dihydropyrones as inhibitors of viral growth and infectivity, based on the study of infection of H9 cell lines by the HIV-1iiib strain, are also disclosed. […] The methods employed follow the procedures of Tummino, et al. (Archives of Biochemistry and Biophysics 1995, 316, 523).
(§1) The compounds of the present invention were evaluated for their in vitro inhibition of HIV-1 protease and for their antiviral efficacy in HIV infected lymphocytes.
Recombinant HIV-1 protease (>96% purity) and HIV protease substrate III (the undecapeptide H-His-Lys-Ala-Arg-Val-Leu-Nph-Glu-Ala-Nle-Ser-NH2,>97% purity) were purchased from Bachem Bioscience Inc. (King of Prussia, PA).
The methods employed follow the procedures of Tummino, et al. (Archives of Biochemistry and Biophysics 1995, 316, 523). […] (total volume, 100 μl). […] The final inhibitor concentrations used were 0 (0.1, 0.2, in some experiments), 0.5, 1, 2, 5, 10, 20, 50, and 100 μM. The solution was mixed, incubated for 5 minutes and the reaction quenched by addition of trifluoracetic acid, 2% final. The (leu-p-nitro-phe) bond of the substrate is cleaved by the enzyme and substrate and products separated by reverse-phase HPLC. Absorbance was measured at 220 nm, peak areas determined, and percentage conversion to product used to calculate percentage control (=[% conversion (+inhibitor)/% conversion (-inhibitor)]×100).

[2] = tested on: HIV in lymphocyte derived CEM cells; experiment: Cellular Infection Assay, antiviral efficacy in HIV infected CEM cells (XTT cytopathic procedure); type: cell-based; conditions: Human immunodeficiency virus 1, CCRF-CEM, CEM cells; for EC95: protecting the cells 95% relative to untreated control; for EC50: reduces HIV cytopathic effects 50% relative to untreated control, read-out: Antiviral Efficacy EC50
Procedure: as §1
(§2) Compounds were tested in lymphocyte derived CEM cells using the XTT cytopathic procedures and were performed at Southern Research Institute (Buckheit, et. al. Antiviral Res. 1993, 21, 247; see also Weislow, et al. J Nat. Cancer Inst., 1989, 81, 577). Compound concentrations were 0.32, 1, 3.2, 10, 32 and 100 uM. The EC50 represents the concentration of agent which reduces HIV cytopathic effects 50% relative to untreated control. EC95 represents the concentration of agent protecting the cells 95% relative to untreated control. Cellular toxicity of the agents are estimated from the TC50 which represents the concentration of the agent which inhibits 50% of the viability of uninfected cells.

[3] = Cellular toxicity in uninfected CEM cells (TC50); type: cell-based; conditions: human, inhibits 50% of the viability of uninfected cells
Procedure: as §2

[4] = 6.0 nM HIV-1 protease, 40 μM substrate III, 37° C., 5 minutes

Row | Structure (SMILES) | IC50 [1, 4] [µM] | EC95 [2] [µM] | EC50 [2] [µM] | CC50 [3] [µM] | IC50 [1] [µM]
1 | Cc1cc(SC2=C(O)CC(C)(CCc3ccc(O)cc3)OC2=O)c(C(C)(C)C)cc1NC(=O)c1ccc(C#N)cc1 (centres unmarked) [Example 68] | 0.056 | 30 | 16 | > 100 | 
2 | Cc1cc(SC2=C(O)CC(CCc3ccc(N)cc3)(C(C)C)OC2=O)c(C(C)(C)C)cc1OS(=O)(=O)c1ccc(C#N)cc1 (centres unmarked) [Example 86] | 0.0013 | 3.7 | 0.4 | 53 | 
3 | Cc1cc(SC2=C(O)CC(CCc3ccc(O)cc3)(C(C)C)OC2=O)c(C(C)(C)C)cc1OCCO (racemic) [Example 5, 3-[2-tert-Butyl-4-(2-hydroxy-ethoxy)-5-methyl-phenylsulfanyl]-4-hydroxy-6-[2-(4-hydroxy-phenyl)-ethyl]-6-isopropyl-5,6-dihydro-pyran-2-one, (+/-)] | 0.0028 | 3.2 | 1.5 | 66 | 
4 | Cc1cc(SC2=C(O)CC(C)(CCc3ccc(O)cc3)OC2=O)c(C(C)(C)C)cc1OS(=O)(=O)N(C)C (racemic) [Example 4] |  | 17 | 2.5 | 71 | 0.0016
5 | Cc1ccc(C(C)(C)C)c(SC2=C(O)CC(CCc3ccccc3)(CCc3ccccc3)OC2=O)c1 [Ref A, 3-(2-tert-Butyl-5-methyl-phenylsulfanyl)-4-hydroxy-6,6-diphenethyl-5,6-dihydro-pyran-2-one, reference compound] | 0.15 |  | > 23 | 23 | 
6 | CCNS(=O)(=O)Oc1cc(C(C)(C)C)c(SC2=C(O)CC(C)(CCc3ccc(O)cc3)OC2=O)cc1C (racemic) [Example 3] | 0.0023 | 12 | 1.5 | 66 | 
7 | Cc1cc(SC2=C(O)C[C@@](CCc3ccc(O)cc3)(C(C)C)OC2=O)c(C(C)(C)C)cc1CO [Example 38, (S)-3-(2-tert-Butyl-4-hydroxymethyl-5-methyl-phenylsulfanyl)-4-hydroxy-6-[2-(4-hydroxy-phenyl)-ethyl]-6-isopropyl-5,6-dihydro-pyran-2-one (+)] |  | 1 | < 0.3 | > 100 | 0.001
8 | Cc1cc(SC2=C(O)CC(C)(CCc3ccc(O)cc3)OC2=O)c(C(C)(C)C)cc1N (centres unmarked) [Example 11, 3-(4-Amino-2-tert-butyl-5-methyl-phenylsulfanyl)-4-hydroxy-6-[2-(4-hydroxy-phenyl)-ethyl]-6-methyl-5,6-dihydro-pyran-2-one monohydrochloride] | 0.013 | 9.1 | 3.7 | > 100 | 
9 | Cc1cc(SC2=C(O)CC(CCc3ccc(O)cc3)(C(C)C)OC2=O)c(C(C)(C)C)cc1NC(=O)c1ccccc1 (centres unmarked) [Example 58] | 0.021 | 24 | 2.8 | 66 | 
10 | Cc1cc(SC2=C(O)CC(CCc3ccc(O)cc3)(CCc3ccc(O)cc3)OC2=O)c(C(C)(C)C)cc1OS(=O)(=O)N1CCN(C)CC1 [Example 30, 4-Methyl-piperazine-1-sulfonic acid 5-tert-butyl-4-{4-hydroxy-6,6-bis-[2-(4-hydroxy-phenyl)-ethyl]-2-oxo-5,6-dihydro-2H-pyran-3-ylsulfanyl}-2-methyl-phenyl ester] | 0.0055 | 9.3 | 5 | 66 | 
11 | Cc1cc(SC2=C(O)CC(CCc3ccc(O)cc3)(C(C)C)OC2=O)c(C(C)(C)C)cc1CO (racemic) [Example 2, 3-[2-tert-Butyl-4-hydroxymethyl-5-methyl-phenylsulfanyl]-4-hydroxy-6-[2-(4-hydroxy-phenyl)-ethyl]-6-isopropyl-5,6-dihydro-pyran-2-one, (+/-)] |  | 1 | 0.6 | > 100 | 0.0036
12 | CCNS(=O)(=O)Oc1cc(C(C)(C)C)c(SC2=C(O)CC(CCc3ccc(O)cc3)(C3CCN(C(C)=O)CC3)OC2=O)cc1C (centres unmarked) [Example 89] | 0.012 | 89 | 32 | > 100 | 
13 | Cc1cc(SC2=C(O)CC(CCc3ccc(O)cc3)(C3CCC3)OC2=O)c(C(C)(C)C)cc1CO (centres unmarked) [Example 98] | 0.0022 | 1.9 | 0.8 | > 100 | 
14 | Cc1cc(SC2=C(O)CC(CCc3ccc(N)cc3)(CCc3ccc(N)cc3)OC2=O)c(C(C)(C)C)cc1CO [Example 16, 6,6-Bis-[2-(4-aminophenyl)ethyl]-3-(2-tert-butyl-4-hydroxymethyl-5-methyl-phenylsulfanyl)-4-hydroxy-5,6-dihydro-pyran-2-one] | 0.0016 | 15 | 1.2 | 72 | 
15 | Cc1cc(SC2=C(O)CC(CCc3ccc(O)cc3)(C3CCCC3)OC2=O)c(C(C)(C)C)cc1CO (centres unmarked) [Example 62] | 0.0031 | 2.5 | 0.6 | > 100 | 
16 | Cc1cc(SC2=C(O)CC(CCc3cccc(O)c3)(C3CCCC3)OC2=O)c(C(C)(C)C)cc1CO (centres unmarked) [Example 39, 3-(2-tert-Butyl-4-hydroxymethyl-5-methyl-phenylsulfanyl)-6-cyclopentyl-4-hydroxy-6-[2-(3-hydroxy-phenyl)-ethyl]-5,6-dihydro-pyran-2-one] | 0.0019 | 0.6 | < 0.3 | > 100 | 
17 | Cc1cc(SC2=C(O)CC(CCc3ccc(O)cc3)(C3CCCCC3)OC2=O)c(C(C)(C)C)cc1O (centres unmarked) [Example 10, 3-(2-tert-Butyl-4-hydroxy-5-methyl-phenylsulfanyl)-6-cyclohexyl-4-hydroxy-6-[2-(4-hydroxy-phenyl)-ethyl]-5,6-dihydro-pyran-2-one] | 0.0029 | 8.9 | 3.1 | 73 | 
18 | Cc1cc(SC2=C(O)CC(CCc3ccc(O)cc3)(CCc3ccc(O)cc3)OC2=O)c(C(C)(C)C)cc1CO [Example 14, 3-(2-tert-Buty-4-hydroxymethyl-5-methyl-phenylsulfanyl)-4-hydroxy-6,6-bis-[2-(4-hydroxyphenyl)ethyl]-5,6-dihydro-pyran-2-one] | 0.0013 | 24 | 6.3 | 69 | 
19 | Cc1cc(SC2=C(O)CC(CCc3ccc(O)cc3)(CCc3ccc(O)cc3)OC2=O)c(C(C)(C)C)cc1N [Example 20, 3-(4-Amino-2-tert-butyl-5-methyl-phenylsulfanyl)-4-hydroxy-6,6-bis[2-(4-hydroxy-phenyl)ethyl]-5,6-dihydro-pyran-2-one] | 0.0029 | 9.6 | 5 | 65 | 
20 | Cc1cc(SC2=C(O)CC(CCc3cccc(O)c3)(CCc3cccc(O)c3)OC2=O)c(C(C)(C)C)cc1CO [Example 21, 3-(2-tert-Butyl-4-hydroxymethyl-5-methyl-phenylsulfanyl)-4-hydroxy-6,6-bis-[2-(3-hydroxy-phenyl)ethyl]-5,6-dihydro-pyran-2-one] | 0.0021 | 9.3 | 4.8 | 66 | 
21 | CCNS(=O)(=O)Oc1cc(C(C)(C)C)c(SC2=C(O)CC(CCc3ccc(O)cc3)(CCc3ccc(O)cc3)OC2=O)cc1C [Example 28] | 0.0013 | 9.4 | 5.5 | 67 | 
22 | Cc1cc(SC2=C(O)CC(CCc3cccc(O)c3)(c3ccccc3)OC2=O)c(C(C)(C)C)cc1CO (centres unmarked) [Example 37, 3-(2-tert-Butyl-4-hydroxymethyl-5-methyl-phenylsulfanyl)-4-hydroxy-6-[2-(3-hydroxy-phenyl)-ethyl]-6-phenyl-5,6-dihydro-pyran-2-one] |  |  | 6.1 | > 100 | 0.0025
23 | Cc1cc(SC2=C(O)C[C@@](CCc3cccc(O)c3)(C3CCCC3)OC2=O)c(C(C)(C)C)cc1CO [Example 40] |  | < 0.3 | < 0.3 | > 100 | 
24 | CCc1cc(SC2=C(O)CC(CCc3ccc(O)cc3)(C(C)C)OC2=O)c(C(C)(C)C)cc1CO (centres unmarked) [Example 97] |  | 2.8 | 0.8 | > 100 | 
25 | Cc1cc(CCC2(C(C)C)CC(O)=C(Sc3cc(C)c(CO)cc3C(C)(C)C)C(=O)O2)ccc1O (centres unmarked) [Example 100] |  | 0.9 | 0.33 | 84 | 

Source: patent publication US5834506A, “Dihydropyrones with improved antiviral activity” (Warner-Lambert Company, priority 1997, dated 1998)
